Assay: osmotic coefficient (dimensionless); mn = molality of the nth substance listed, in mol/kg
Settings: 323.15 K, 101 kPa, Liquid, vapor pressure osmometer

CCCO [propan-1-ol] + CCCCCC[n+]1ccn(C)c1.O=S(=O)([N-]S(=O)(=O)C(F)(F)F)C(F)(F)F
Settings	osmotic coefficient
m1 = 0.0281	0.906
m1 = 0.0539	0.866
m1 = 0.081	0.797
m1 = 0.1046	0.716
m1 = 0.2004	0.621
m1 = 0.3018	0.523
m1 = 0.4154	0.46
m1 = 0.519	0.445
m1 = 0.8326	0.386
m1 = 1.14	0.342
m1 = 1.432	0.316
m1 = 1.742	0.306
m1 = 2.247	0.288
m1 = 2.739	0.265
m1 = 3.188	0.247

CCCCCO [pentan-1-ol] + CCCCCC[n+]1ccn(C)c1.O=S(=O)([N-]S(=O)(=O)C(F)(F)F)C(F)(F)F
Settings	osmotic coefficient
m1 = 0.0502	0.467
m1 = 0.0781	0.411
m1 = 0.1123	0.372
m1 = 0.1977	0.313
m1 = 0.3009	0.267
m1 = 0.4054	0.24
m1 = 0.4903	0.214
m1 = 0.8026	0.178
m1 = 1.11	0.163
m1 = 1.368	0.149
m1 = 1.723	0.12
m1 = 2.211	0.095
m1 = 2.657	0.096
m1 = 3.231	0.091

CCC(C)O (configuration not stated) [butan-2-ol] + CCCCCC[n+]1ccn(C)c1.O=S(=O)([N-]S(=O)(=O)C(F)(F)F)C(F)(F)F
Settings	osmotic coefficient
m1 = 0.0478	0.834
m1 = 0.076	0.769
m1 = 0.1019	0.659
m1 = 0.2141	0.532
m1 = 0.3112	0.443
m1 = 0.4257	0.403
m1 = 0.5354	0.369
m1 = 0.72	0.324
m1 = 1.008	0.285
m1 = 1.311	0.251
m1 = 1.722	0.231
m1 = 2.107	0.219
m1 = 2.477	0.214
m1 = 2.87	0.195

CC(C)O [propan-2-ol] + CCCCCC[n+]1ccn(C)c1.O=S(=O)([N-]S(=O)(=O)C(F)(F)F)C(F)(F)F
Settings	osmotic coefficient
m1 = 0.0549	0.902
m1 = 0.0805	0.876
m1 = 0.0992	0.841
m1 = 0.2037	0.678
m1 = 0.3092	0.572
m1 = 0.4087	0.524
m1 = 0.5171	0.485
m1 = 0.8189	0.429
m1 = 1.111	0.387
m1 = 1.405	0.355
m1 = 1.712	0.321
m1 = 2.193	0.314
m1 = 2.655	0.304
m1 = 3.207	0.294

CCCCO [butan-1-ol] + CCCCCC[n+]1ccn(C)c1.O=S(=O)([N-]S(=O)(=O)C(F)(F)F)C(F)(F)F
Settings	osmotic coefficient
m1 = 0.0466	0.746
m1 = 0.0832	0.604
m1 = 0.1034	0.574
m1 = 0.1973	0.461
m1 = 0.2989	0.411
m1 = 0.3965	0.362
m1 = 0.4907	0.343
m1 = 0.6881	0.295
m1 = 0.9952	0.245
m1 = 1.304	0.212
m1 = 1.685	0.2
m1 = 2.109	0.18
m1 = 2.479	0.172
m1 = 2.947	0.161
m1 = 3.291	0.162

Reference: the NIST ThermoML archive (doi:10.1016/j.fluid.2011.09.037)
